The values that follow come from patent US12642271B2, “Active compound combinations comprising a (thio)carboxamide derivative and a fungicidal compound” (Bayer CropScience Aktiengesellschaft, priority 2011, dated 2026).

Test [1] concerns Alternaria solani. As to the kind of experiment: Alternaria test (tomatoes)/preventive. Format: in vivo.
Test [2] deals with Sphaerotheca fuliginea. As to the kind of experiment: Sphaerotheca test (cucumbers)/preventive. Format: in vivo.
Test [3] concerns Venturia inaequalis. Description: Venturia test (apples)/preventive. The note with it: for pest or weed control at 1 ppm: 1 ppm a.i.
Description: After the spray coating has dried on, the plants are inoculated with an aqueous conidia suspension of the causal agent of apple scab (Venturia inaequalis) and then remain for 1 day in an incubation cabinet at approximately 20° C. and a relative atmospheric humidity of 100%.
The plants are then placed in a greenhouse at approximately 21° C. and a relative atmospheric humidity of approximately 90%.
The test is evaluated 10 days after the inoculation.
In test [4] the test system is Blumeria graminis f.sp. hordei. Description: Blumeria test (barley)/preventive. Format: in vivo.
Test [5] relates to Leptosphaeria nodorum. As to the kind of experiment: Leptosphaeria nodorum test (wheat)/preventive. Format: in vivo.
Test [6] deals with Fusarium nivale (var. majus). Description: Fusarium nivale (var. majus)-test (wheat)/preventive. The note with it: for pest or weed control at 20 ppm / pest or weed control at 80 ppm / pest or weed control at 40 ppm / pest or weed control at 10 ppm: Microdochium nivale, in Triticum aestivum, 120 h; for pest or weed control at 20 ppm: 20 ppm a.i.; for pest or weed control at 80 ppm: 80 ppm a.i.
Description: After the spray coating has been dried, the plants are slightly injured by using a sandblast and afterwards they are sprayed with a conidia suspension of Fusarium nivale (var. majus).
The plants are placed in the greenhouse under a translucent incubation cabinet at a temperature of approximately 10° C. and a relative atmospheric humidity of approximately 100%.
The test is evaluated 5 days after the inoculation.

In test [7] the test system is Puccinia triticina. As to the kind of experiment: Puccinia triticina-test (wheat)/preventive. Format: in vivo. The conditions noted are these: preventive, evaluated 8 days after inoculation.
In test [8] the test system is Phytophthora infestans. As to the kind of experiment: whole plant or invertebrate. Format: in vivo.
Test [9] concerns Septoria tritici. Description: Septoria tritici-test (wheat)/preventive. Format: in vivo. The conditions noted are these: preventive, evaluated 21 days after inoculation; for pest or weed control at 10 ppm: Zymoseptoria tritici, 504 h, read-out: Efficacy in % found.
The mark [10] stands for this setting: read-out: Efficacy in % found, Table 8c.
Setting [11] is: read-out: Efficacy in % found, Table 8e.
The mark [12] stands for this setting: Phytophthora infestans, 72 h, read-out: Efficacy in % found.

“And” between values parts separate entries of the source, which are not always exact repeats. Equal entries are not always repeated. Where two headings read alike, the source gives them in different places.

With propamocarb-HCl [B10.10], the “Efficacy in % found” value is reported as 0% in [1] (Table 3a, 50 ppm a.i.); 0% in [2] (Table 4a, 50 ppm a.i.); 70% in [2] (Table 4d, 50 ppm a.i.); 0% in test [3] (Table 2a, 50 ppm a.i.); 13% in [4] (Table 6c, 400 ppm).
Regarding `CC1(C)CCC(Cc2ccc(Cl)cc2)C1(O)Cn1cncn1` (stereo not shown) [B1.30, metconazole], the pest or weed control at 80 ppm in [5] (Parastagonospora nodorum, 192 h, application rate 80 ppm, wheat, preventive, evaluated 8 days after inoculation, read-out: Efficacy in % found) turned out to be 44%; in test [6] (setting [11]), 0%. In addition, the pest or weed control at 20 ppm in test [6] (setting [10]) turned out to be 13%; in [7] (Puccinia triticina, 192 h, application rate 20 ppm a.i., read-out: Efficacy in % found), 44%. Also, in test [2] (Podosphaera fuliginea, 168 h, Table 4d, 5 ppm a.i., read-out: Efficacy in % found), the pest or weed control at 5 ppm stood at 77%. In test [3] (Venturia inaequalis, 240 h, read-out: Efficacy in % found, Table 2c), the pest or weed control at 1 ppm came out at 38%.
Consider `CCCCCCCCc1c(CC)nc2ncnn2c1N` [B3.1, ametoctradin], for which the “Efficacy in % found” value in [8] (Table 1a, 5 ppm a.i.) amounted to 48%.
As for `Fc1ccc([C@]2(Cn3cncn3)O[C@H]2c2ccccc2Cl)cc1` (racemic) [B1.12, epoxiconazole], the pest or weed control at 10 ppm is 0% in [9] (application rate 10 ppm a.i.); 0% in test [5] (Parastagonospora nodorum, 192 h, Table 9a, 10 ppm a.i., read-out: Efficacy in % found); 29% in test [5] (Parastagonospora nodorum, 192 h, application rate 10 ppm, wheat, preventive, evaluated 8 days after inoculation, read-out: Efficacy in % found). In test [6] (read-out: Efficacy in % found, Table 8e, 40 ppm a.i.), the pest or weed control at 40 ppm came out at 0%.
As to mancozeb [B5.23], the “Efficacy in % found” value was found to be 0% in [5] (Table 9e, 100 ppm a.i.); 45% in [8] (Table 1c, 50 ppm a.i.); 56% in test [1] (Table 3a, 50 ppm a.i.); 0% in test [1] (Table 3d, 50 ppm); 0% in test [2] (Table 4a, 25 ppm a.i.); 0% in test [4] (Table 6c, 400 ppm).
`Cn1c(=O)c2sc3c(=O)n(C)c(=O)c3sc2c1=O` [B15.60, 2,6-dimethyl-1H,5H-[1,4]dithiino[2,3-c:5,6-c′]dipyrrole-1,3,5,7(2H,6H)-tetrone]: in [1] (Alternaria solani, 72 h, Table 3d, 50 ppm, read-out: Efficacy in % found), the pest or weed control at 50 ppm was found to be 0%.
As for `COCC(=O)N(c1c(C)cccc1C)[C@H](C)C(=O)OC` [B12.10, mefenoxam], the “Efficacy in % found” value in test [5] (application rate 100 ppm, wheat, preventive, evaluated 8 days after inoculation) is on record as 0%; in test [4] (Table 6f, 400 ppm a.i.), 25%.
As for `CCN(C)C=Nc1cc(C)c(Oc2nc(Cc3ccc(Cl)cc3)ns2)cc1C` [B15.78, N′-(4-{[3-(4-chlorobenzyl)-1,2,4-thiadiazol-5-yl]oxy}-2,5-dimethylphenyl)-N-ethyl-N-methylimidoformamide], the pest or weed control at 62.5 ppm in test [7] (Puccinia triticina, 192 h, application rate 62.5 ppm a.i., read-out: Efficacy in % found) was found to be 57%. The pest or weed control at 5 ppm in test [3] (Venturia inaequalis, 240 h, read-out: Efficacy in % found, Table 2f, 5 ppm a.i.) was determined as 16%.
Regarding `N#Cc1ccccc1NC(=O)c1snc(Cl)c1Cl` [B6.2, isotianil], the “Efficacy in % found” value in test [1] (Table 3b, 50 ppm) is recorded as 27%; in test [4] (Table 6b, 100 ppm a.i.), 38%.
`CC(C)c1ccc(F)cc1CN(C(=O)c1c(C(F)F)nn(C)c1F)C1CC1` [A7, N-cyclopropyl-3-(difluoromethyl)-5-fluoro-N-(5-fluoro-2-isopropylbenzyl)-1-methyl-1H-pyrazole-4-carboxamide]: the pest or weed control at 10 ppm in [9] (application rate 10 ppm a.i.) amounted to 71%.
propineb [B5.29]: the “Efficacy in % found” value in [8] (Table 1c, 50 ppm a.i.) was 50%; in test [1] (Table 3a, 50 ppm a.i.), 33%; in test [1] (Table 3d, 50 ppm) it was 0%; in test [2] (Table 4a, 50 ppm a.i.) it was 0%; in [2] (Table 4d, 50 ppm a.i.), 70%; in test [4] (Table 6c, 400 ppm), 13%.
`COC(=O)N(OC)c1ccccc1COc1ccn(-c2ccc(Cl)cc2)n1` [B3.17, pyraclostrobin]: the pest or weed control at 40 ppm came out at 57% in [5] (Parastagonospora nodorum, 192 h, application rate 40 ppm, wheat, preventive, evaluated 8 days after inoculation, read-out: Efficacy in % found); 93% in test [6] (read-out: Efficacy in % found, Table 8a, 40 ppm); 20% in [4] (Blumeria graminis, 168 h, Table 6b, 40 ppm a.i., read-out: Efficacy in % found). Also, the pest or weed control at 1 ppm in [8] (setting [12]) turned out to be 53%; in [3] (Venturia inaequalis, 240 h, read-out: Efficacy in % found, Table 2b), 79%. The pest or weed control at 10 ppm in [6] (read-out: Efficacy in % found, Table 8e, 10 ppm a.i.) turned out to be 57%; in test [6] (read-out: Efficacy in % found, Table 8d, 10 ppm a.i.) it was 71%. Moreover, in test [2] (Podosphaera fuliginea, 168 h, Table 4d, 2 ppm a.i., read-out: Efficacy in % found), the pest or weed control at 2 ppm came to 0%.
As for `N#Cc1c(Cl)c(Cl)c(Cl)c(C#N)c1Cl` [B5.4, chlorothalonil], the pest or weed control at 50 ppm was 75% in [8] (setting [12]) and 35% in test [1] (Alternaria solani, 72 h, Table 3a, 50 ppm a.i., read-out: Efficacy in % found). The pest or weed control at 12.5 ppm in [3] (Venturia inaequalis, 240 h, read-out: Efficacy in % found, Table 2a, 12.5 ppm a.i.) is 35%.
In the case of `Cn1cc(C(=O)Nc2cccc3c2[C@@H]2CC[C@H]3C2=C(Cl)Cl)c(C(F)F)n1` (racemic) [B2.29, benzovindiflupyr], the “Efficacy in % found” value in test [6] (Table 8f, 120 ppm a.i.) is listed as 25%; in test [1] (Table 3e, 0.5 ppm), 21%; in test [3] (Table 2e, 0.1 ppm a.i.), 76%.
Regarding `Cc1ccc(C(C)C)c(CN(C(=O)c2c(C(F)F)nn(C)c2F)C2CC2)c1` [A12, N-cyclopropyl-3-(difluoromethyl)-5-fluoro-N-(2-isopropyl-5-methylbenzyl)-1-methyl-1H-pyrazole-4-carboxamide], the pest or weed control at 40 ppm in [7] (Puccinia triticina, 192 h, application rate 40 ppm a.i., read-out: Efficacy in % found) is 89%. Moreover, the pest or weed control at 10 ppm in test [4] (Blumeria graminis, 168 h, Table 6f, 10 ppm a.i., read-out: Efficacy in % found) came out at 50%.
On to `CC(C)CC(C)c1sccc1NC(=O)c1cn(C)nc1C(F)(F)F` (stereo not shown) [B2.21, penthiopyrad], for which the pest or weed control at 20 ppm in [6] (setting [10]) turned out to be 13%; in [4] (Blumeria graminis, 168 h, Table 6a, 20 ppm a.i., read-out: Efficacy in % found), 20%. The pest or weed control at 80 ppm in [6] (setting [11]) came to 0%; in test [7] (Puccinia triticina, 192 h, application rate 80 ppm a.i., read-out: Efficacy in % found), 78%. Further, the pest or weed control at 0.5 ppm in [2] (Podosphaera fuliginea, 168 h, Table 4d, 0.5 ppm a.i., read-out: Efficacy in % found) amounted to 0%; in [3] (Venturia inaequalis, 240 h, read-out: Efficacy in % found, Table 2d, 0.5 ppm a.i.), 0%.
folpet [B5.16]: the “Efficacy in % found” value in test [5] (application rate 400 ppm a.i., wheat, preventive, evaluated 8 days after inoculation) came out at 44%; in test [6] (Table 8f, 200 ppm a.i.), 50%; in test [1] (Table 3e, 12.5 ppm) it was 39%; in test [2] (Table 4a, 25 ppm a.i.), 0%; in test [3] (Table 2a, 12.5 ppm a.i.) it was 47%; in test [3] (Table 2e, 10 ppm a.i.), 45%.
For `CCO[PH](=O)O` [B15.24, fosetyl-Al], the “Efficacy in % found” value in test [1] (Table 3a, 50 ppm a.i.) is listed as 40%; in test [2] (Table 4a, 50 ppm a.i.), 0%; in test [2] (Table 4d, 12.5 ppm a.i.) it was 0%; in test [3] (Table 2a, 50 ppm a.i.), 0%.
Take spiroxamine [B1.46]: the “Efficacy in % found” value in test [5] (Table 9a, 200 ppm a.i.) is 29%; in test [5] (application rate 200 ppm, wheat, preventive, evaluated 8 days after inoculation), 22% and 40%; in test [7] (application rate 200 ppm a.i.), 0%; in test [2] (Table 4b, 25 ppm a.i.) it was 0%.
On to `CCCC1COC(Cn2cncn2)(c2ccc(Cl)cc2Cl)O1` (stereo not shown) [B1.40, propiconazole], for which the pest or weed control at 20 ppm in test [5] (Parastagonospora nodorum, 192 h, application rate 20 ppm, wheat, preventive, evaluated 8 days after inoculation, read-out: Efficacy in % found) is 0%; in [6] (read-out: Efficacy in % found, Table 8b) it was 0%. The pest or weed control at 2 ppm in test [1] (Alternaria solani, 72 h, Table 3c, 2 ppm, read-out: Efficacy in % found) was 0%.
For `Cn1cc(C(=O)Nc2ccc(F)cc2-c2ccc(Cl)c(Cl)c2)c(C(F)F)n1` [B2.1, bixafen], the “Efficacy in % found” value in test [9] (application rate 10 ppm a.i.) amounted to 29%; in test [9] (application rate 40 ppm a.i.), 29%; in test [5] (Table 9a, 40 ppm a.i.), 0%; in test [5] (application rate 40 ppm, wheat, preventive, evaluated 8 days after inoculation), 0%; in [6] (Table 8b, 10 ppm a.i.), 14%; in test [7] (application rate 40 ppm a.i.) it was 22%. Besides, the “Efficacy in % found” value in test [2] (Table 4d, 0.5 ppm a.i.) is on record as 67%.
As for `O=C(NCc1ncc(C(F)(F)F)cc1Cl)c1c(Cl)cccc1Cl` [B4.6, fluopicolide], the “Efficacy in % found” value in [5] (Table 9c, 100 ppm a.i.) is listed as 17%; in test [8] (Table 1a, 1 ppm a.i.), 13%; in test [4] (Table 6f, 400 ppm a.i.) it was 13%.
